Consider two compounds from EP4563149A1, “LURBINECTEDIN, ECUBECTEDIN AND A RELATED COMPOUND FOR USE IN THE TREATMENT OF SKIN CANCERS” (Pharma Mar, S.A., priority 2023, dated 2025).

Assay [1] has as its system 501mel^VemuR. The assay can be described thus: Cell viability assay (PrestoBlue), 72h. Particulars: Homo sapiens.
Experimental: Cells were grown at 37°C in 5% CO2 (10% for Hermes 3A) and were regularly checked for mycoplasma contamination. MM patient-derived short-term melanoma cultures (MM011, MM074, MM117, MM029, MM047, MM099) were grown in HAM-F10 (Gibco, Invitrogen) supplemented with 10% Fetal Calf Serum (FCS), 25 mM HEPES, 5.2 mM GLUTAMAX and penicillin-streptomycin. Melanoma cell lines 501mel and SKmel28 were grown in RPMI w/o HEPES (Gibco, Invitrogen) supplemented with 10% FCS and gentamycin. Vemurafenib-resistant cells (501melVemuR and MM074VemuR) were additionally supplemented with 1.5 µM of vemurafenib. Melanoma IGR cell lines (IGR37 and IGR39) were grown in RPMI w/o HEPES (Gibco, Invitrogen) supplemented with 15% FCS and gentamycin.
(§1) To determine the IC50 (half maximal inhibitory concentration) of these cells to various inhibitors, cell viability assays were performed.
(§2) After 72h of treatment with different concentrations of the compounds, cells were treated with PrestoBlue reagent according to the manufacturer's instructions. The absorbance per well was measured with a Cellinsight CX5 microplate reader. Data were analyzed using Prism9 statistical software.
In assay [2] the test system is Hermes3A. The assay can be described thus: Cell viability assay (PrestoBlue), 72h. Particulars: for sensitivity of non-cancerous Hermes3A immortalized melanocytes compared with the melanoma cells: Hermes3A versus melanoma cells; for IC50: Homo sapiens, Melanocyte, 72 h.
Experimental: (§3) Cells were grown at 37°C in 5% CO2 (10% for Hermes 3A) and were regularly checked for mycoplasma contamination. […] Melanoma IGR cell lines (IGR37 and IGR39) were grown in RPMI w/o HEPES (Gibco, Invitrogen) supplemented with 15% FCS and gentamycin.
as §1, §2
Assay [3] relates to IGR37. The assay can be described thus: Cell viability assay (PrestoBlue), 72h, last line of Table 2. To be noted: Homo sapiens, IGR-37, 72 h.
Experimental: as §3, §1, §2
The test system of assay [4] is MM011. The assay can be described thus: Cell viability assay (PrestoBlue), 72h. To be noted: Homo sapiens.
Experimental: Cells were grown at 37°C in 5% CO2 (10% for Hermes 3A) and were regularly checked for mycoplasma contamination. […] Melanoma cell lines 501mel and SKmel28 were grown in RPMI w/o HEPES (Gibco, Invitrogen) supplemented with 10% FCS and gentamycin. Vemurafenib-resistant cells (501melVemuR and MM074VemuR) were additionally supplemented with 1.5 µM of vemurafenib. Melanoma IGR cell lines (IGR37 and IGR39) were grown in RPMI w/o HEPES (Gibco, Invitrogen) supplemented with 15% FCS and gentamycin.
as §1, §2
The subject of assay [5] is all melanoma cells. The assay can be described thus: Cell viability assay (PrestoBlue), summary over all melanoma cells. Format: cell-based. Particulars: Homo sapiens, read-out: IC50 values.
In assay [6] the test system is MM074 and MM029 cells. To be noted: MM074 and MM029, 10×IC50 for 8h.
Experimental: Purified RNA was subjected to library preparation and high throughput sequencing on Illumina NovaSeq as signal-read 50 base reads following manufacturer's instructions. Sequenced samples were analyzed using nf-core RNAseq pipeline v1.3, quality controlled, trimmed, and aligned to the reference human genome using HISAT2. The identification and quantification of transcripts were performed using feature Counts from subread package. Differential expressed gene (DEG) analysis were done using DeSeq2.

For `COc1c(C)cc2c(c1O)[C@@H]1[C@@H]3[C@@H]4SC[C@]5(N[C@H](CO)Cc6c5oc5ccccc65)C(=O)OC[C@@H](c5c6c(c(C)c(OC(C)=O)c54)OCO6)N3[C@@H](O)[C@H](C2)N1C` [Compound IA], the IC50 (as a rule, the concentration that gives 50% inhibition) is 2.13 nM in assay [1]; 4.93 nM in assay [2]; 0.84 nM in assay [3]; 1.44 nM in assay [4]; 0.3 to 4.73 nM in assay [5]. For the same compound, the “sensitivity of non-cancerous Hermes3A immortalized melanocytes compared with the melanoma cells” value in assay [2] is “less sensitive”. In addition, the “transcriptional effects compared to lurbinectedin” value in assay [6] is “dissimilar and fewer genes being deregulated”.

Consider `COc1c(C)cc2c(c1O)[C@@H]1[C@@H]3[C@@H]4SC[C@]5(N[C@H](CO)Cc6c5[nH]c5ccccc65)C(=O)OC[C@@H](c5c6c(c(C)c(OC(C)=O)c54)OCO6)N3[C@@H](O)[C@H](C2)N1C` [PM14, ecubectedin], for which the IC50 in assay [1] is 1.04 nM; in assay [2], 2.89 nM; in assay [3], 0.78 nM; in assay [4] it was 1.07 nM; in assay [5], 0.3 to 4.73 nM. Besides, the “sensitivity of non-cancerous Hermes3A immortalized melanocytes compared with the melanoma cells” value in assay [2] was “less sensitive”.
